Test [1] has as its system CCK receptor. The note with it: prior art CCK antagonists; cited from earlier work.
Test [2] deals with T1, CCK receptor (Rattus norvegicus, UniProt P30551).
T1 construct: The whole pancreas was dissected free of fat tissue and was homogenized; from tissue; host or cells: rat (Sprague-Dawley) whole pancreas membranes
T1 sequence (P30551 1-444): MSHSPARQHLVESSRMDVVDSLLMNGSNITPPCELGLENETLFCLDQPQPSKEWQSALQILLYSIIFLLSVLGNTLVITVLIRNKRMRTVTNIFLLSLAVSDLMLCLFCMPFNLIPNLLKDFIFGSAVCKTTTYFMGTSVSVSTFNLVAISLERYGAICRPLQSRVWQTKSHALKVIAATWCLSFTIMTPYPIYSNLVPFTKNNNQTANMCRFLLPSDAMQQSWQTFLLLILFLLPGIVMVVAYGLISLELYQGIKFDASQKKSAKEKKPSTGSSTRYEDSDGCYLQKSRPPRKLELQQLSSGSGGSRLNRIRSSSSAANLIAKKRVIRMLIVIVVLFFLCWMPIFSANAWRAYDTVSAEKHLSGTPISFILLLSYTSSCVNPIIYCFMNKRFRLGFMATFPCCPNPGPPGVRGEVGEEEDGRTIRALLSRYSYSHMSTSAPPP
The test is described as follows: CCK receptor binding (pancreas), inhibition of 125I-CCK-33 binding. Also noted: species or system rat (Male Sprague-Dawley). The note with it: for effect on the 125I-CCK receptor binding assay: protease inhibitor additives of the assay buffer. The method, then:
1. CCK receptor binding (pancreas)
CCK-33 was radiolabeled with ^125 I-Bolton Hunter reagent (2000 Ci/mmole) as described by Sankara et al. (J. Biol. Chem. 254: 9349-9351, 1979). Receptor binding was performed according to Innis and Snyder (Proc. Natl. Acad. Sci. 77: 6917-6921, 1980) with the minor modification of adding the additional protease inhibitors, phenylmethane sulfonyl fluoride and o-phenanthroline. The latter two compounds have no effect on the ^125 I-CCK receptor binding assay.
Male Sprague-Dawley rats (200-350 g) were sacrificed by decapitation. The whole pancreas was dissected free of fat tissue and was homogenized in 20 volumes of ice-cold 50 mM. Tris HCl (pH 7.7 at 25° C.) with a Brinkmann Polytron PT 10. The homogenates were centrifuged at 48,000 g for 10 min. Pellets were resuspended in Tris Buffer, centrifuged as above and resuspended in 200 volumes of binding assay buffer (50 mM Tris HCl, pH 7.7 at 25° C., 5 mM dithiothrietol, 0.1 mM bacitracin, 1.2 mM phenylmethane sulfonyl fluoride and 0.5 mM o-phenanthroline). […] All assays were run in duplicate or triplicate. The reaction mixtures were incubated at 37° C. for 30 minutes and centrifuged in a Beckman Microfuge (4 minutes) immediately after adding 1 ml of ice-cold incubation buffer. The supernatant was aspirated and discarded, pellets were counted with a Beckman gamma 5000. For Scatchard analysis (Ann. N.Y. Acad. Sci. 51: 660, 1949), ^125 I-CCK-33 was progressively diluted with increasing concentrations of CCK-33.

Test [3] deals with T2, CCK receptor (Cavia porcellus, UniProt H0VZC5).
T2 construct: Cerebral cortex was dissected and used as a receptor source; from tissue; host or cells: guinea pig (Hartley) cerebral cortex membranes
Briefly: CCK receptor binding (brain), inhibition of 125I-CCK-33 binding. More on the design: species or system guinea pig (Male Hartley). The note with it: 125I-CCK-33, guinea pig cerebral cortex, 25° C., 2 hours. The method, then:
2. CCK Receptor Binding (Brain)
CCK-33 was radiolabeled and the binding was performed according to the description for the pancreas method with modification according to Saito et al. (J. Neurochem. 37, 483-490, 1981).
Male Hartley guinea pigs (300-500 g) were sacrificed by decapitation and the brains were removed and placed in ice-cold 50 mM. Tris HCl plus 7.58 g/l Trizma-7.4 (pH 7.4 at 25° C.). Cerebral cortex was dissected and used as a receptor source. Each gram of fresh guinea pig brain tissue was homogenized in 10 ml of Tris Trizma buffer with a Brinkman polytron PT-10. The homogenates were centrifuged at 42,000 g for 15 min. […] All assays were run in duplicate or triplicate. The reaction mixtures were incubated at 25° C. for 2 hours and centrifuged in a Beckman Microfuge (4 minutes) immediately after adding 1 ml of ice-cold incubation buffer. The supernatant was aspirated and discarded, pellets were counted with a Beckman gamma 5000.

For the next test, the system named is gastrin receptor. The note with it: cited from earlier work.
Where [4] appears, read: 125I-CCK-33, rat pancreas membranes, 37° C., 30 minutes, read-out: IC50 125I-CCK Pancreas.
Where [5] appears, read: read-out: IC50 125I-CCK Pancreas.

Where two headings read alike, the source gives them in different places. Square brackets hold non-standard residues; d marks the D form. Peptide text beside a SMILES is read from it. * marks the point of attachment. sY = N[C@@H](Cc1ccc(OS(=O)(=O)O)cc1)C(=O)O; Cbz = O=C(OCc1ccccc1)*; Boc = CC(C)(C)OC(=O)*

T2 sequence (H0VZC5 entry or part of it): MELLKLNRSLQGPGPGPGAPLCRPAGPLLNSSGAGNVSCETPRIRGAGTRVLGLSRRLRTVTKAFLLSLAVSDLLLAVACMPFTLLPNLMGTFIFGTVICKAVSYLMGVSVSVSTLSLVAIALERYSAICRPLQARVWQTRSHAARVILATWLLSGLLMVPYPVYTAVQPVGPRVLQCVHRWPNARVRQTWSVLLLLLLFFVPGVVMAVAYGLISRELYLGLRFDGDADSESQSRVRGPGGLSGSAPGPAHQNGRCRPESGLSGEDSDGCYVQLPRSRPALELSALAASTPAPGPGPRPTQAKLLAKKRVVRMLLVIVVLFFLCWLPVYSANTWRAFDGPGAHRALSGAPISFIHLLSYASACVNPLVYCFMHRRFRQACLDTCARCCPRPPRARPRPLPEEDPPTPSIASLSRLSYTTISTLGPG

Consider `CSCC[C@H](NC(=O)OC(C)(C)C)C(=O)N[C@@H](CC(=O)O)C(=O)N[C@@H](Cc1ccccc1)C(N)=O` [Boc-Met-Asp-Phe-NH2] (Boc-Met-Asp-Phe-NH2), for which the CCK antagonist activity result in the test on CCK receptor [1] is “can function as CCK antagonists”.
On to `CSCC[C@H](NC(=O)[C@H](Cc1ccc(OS(=O)(=O)O)cc1)NC(=O)OCc1ccccc1)C(=O)NCC(=O)N[C@@H](Cc1c[nH]c2ccccc12)C(=O)N[C@@H](CCSC)C(=O)N[C@@H](CC(=O)O)C(N)=O` [Cbz-Tyr(SO3 H)-Met-Gly-Trp-Met-Asp-NH2] (Cbz-[sY]MGWMD-NH2), for which the CCK antagonist activity result in the test on CCK receptor [1] is given as “can function as CCK antagonists”.
The term IC50 denotes the concentration needed to halve the response being measured. Turning to `Fc1ccccc1C1=N[C@H](Cc2c[nH]c3ccccc23)c2nncn2-c2ccccc21` [Compound 1, 6-(2-Fluorophenyl)-4(R)-4-(3'-indolyl)methyl-4H-s-triazolo[4,3-a]-1,4-benzodiazepine], the IC50 at CCK receptor [2] (setting [4]) came out at 0.2 µM.
On to `Cc1nnc2n1-c1ccccc1C(c1ccccc1F)=N[C@@H]2Cc1c[nH]c2ccccc12` [Compound 2, 6-(2-Fluorophenyl)-4-(R)-4-(3'-indolyl)methyl-1-methyl-4H-s-triazolo[4,3-a]-1,4-benzodiazepine], for which the IC50 at CCK receptor [3] amounted to 38.6 µM; at CCK receptor [2] (setting [4]), 0.3 µM.
As to `Fc1ccccc1C1=N[C@H](Cc2c[nH]c3ccccc23)c2nnc(-c3ccccc3)n2-c2ccccc21` [Compound 3, 6-(2-Fluorophenyl)-4(R)-4-(3'-indolyl)methyl-1-phenyl-4H-s-triazolo[4,3-a]-1,4-benzodiazepine], the IC50 at CCK receptor [2] (setting [5]) was 22 µM.
On the same count and under the same terms, with `CN(C)Cc1nnc2n1-c1ccccc1C(c1ccccc1F)=N[C@@H]2Cc1c[nH]c2ccccc12` [Compound 4, 6-(2-Fluorophenyl)-4(R)-4-(3'-indolyl)methyl-1-dimethylaminomethyl-4H-s-triazolo[4,3-a]-1,4-benzodiazapine] the figure was 14 µM.
Take `O=c1[nH]nc2n1-c1ccccc1C(c1ccccc1F)=N[C@@H]2Cc1c[nH]c2ccccc12` [Compound 5, 2,4-Dihydro-3(R)-(3'-indolyl)methyl-6-(2-fluorophenyl)-1H-S-triazolo-[4,3-a]-1,4-benzodiazepin-1-one solvate]: the 50% inhibitory concentration (IC50) on CCK receptor [3] amounted to 63 µM; on CCK receptor [2], 3.1 µM.
For `Fc1ccccc1C1=N[C@H](Cc2c[nH]c3ccccc23)c2nnc(C(Cl)(Cl)Cl)n2-c2ccccc21` [Compound 6, 1-Trichloromethyl-4(R)-(3'-indolyl)methyl-6-(2-fluorophenyl)-4H-S-triazolo[4,3-a]-1,4-benzodiazepine solvate], the IC50 is greater than 100 µM on CCK receptor [3] and 25 µM at CCK receptor [2] (setting [4]).
Consider `O=C(NC1N=C(c2ccccc2F)c2ccccc2-n2cnnc21)OCc1ccccc1` (stereo not drawn) [Compound 7, 6-(2-Fluorophenyl)-4-benzyloxycarbonylamino-4H-s-triazolo[4,3-a]-1,4-benzodiazepine], for which the values for the IC50 at CCK receptor [3] and on CCK receptor [2] (setting [5]) were 8 µM and 0.22 µM, respectively.
With `O=C(NC1N=C(c2ccccc2F)c2ccccc2-n2cnnc21)c1ccc(Cl)cc1` (stereo not drawn) [Compound 8, 6-(2-Fluorophenyl)-4-(4-chlorophenyl)carbonylamino-4H-s-triazolo[4,3-a]-1,4-benzodiazepine], the values for the IC50 at CCK receptor [3] and on CCK receptor [2] (setting [4]) were 9.3 µM and 0.0044 µM, respectively.
Turning to `O=C(NC1N=C(c2ccccc2F)c2ccccc2-n2cnnc21)c1cc2ccccc2[nH]1` (stereo not drawn) [Compound 9, 6-(2-Fluorophenyl)-4-(indol-2-yl)carbonylamino-4H-s-triazolo[4,3-a]-1,4-benzodiazepine], the IC50 came out at 0.053 µM on CCK receptor [3] and 0.0009 µM on CCK receptor [2] (setting [4]).
Take `Cc1nnc2n1-c1ccccc1C(c1ccccc1F)=NC2NC(=O)c1cc2ccccc2[nH]1` (stereo not drawn) [Compound 10, 6-(2-Fluorophenyl)-4-(indol-2-yl)carbonylamino-1-methyl-4H-s-triazolo[4,3-a]-1,4-benzodiazepine]: the IC50 on CCK receptor [3] was determined as 0.066 µM; on CCK receptor [2] (setting [4]) it was 0.0004 µM.
As for `CSCC[C@H](N)C(=O)N[C@@H](CC(=O)O)C(=O)N[C@@H](Cc1ccccc1)C(N)=O` [Met-Asp-Phe-NH2] (H-Met-Asp-Phe-NH2), the CCK antagonist activity entry in the test with CCK receptor [1] was “can function as CCK antagonists”.
Take `CCCC(=O)Nc1nc2c(ncn2[C@@H]2O[C@@H]3COP(=O)(O)O[C@H]3[C@H]2OC(=O)CCC)c(=O)[nH]1` [dibutyryl cyclic GMP]: in the test with CCK receptor [1], the CCK antagonist activity entry was “most potent”.
On to `c1cnc2c(c1)ccc1cccnc12` [o-phenanthroline, reference compound], for which, at CCK receptor [2], the “effect on the 125I-CCK receptor binding assay” value is given as “no effect”.
Regarding `O=S(=O)(F)Cc1ccccc1` [phenylmethane sulfonyl fluoride, reference compound], at CCK receptor [2], the “effect on the 125I-CCK receptor binding assay” value is reported as “no effect”.
Take `CCCN(CCC)C(=O)C(CCC(=O)O)NC(=O)c1ccccc1` (stereo not drawn) [proglumide]: the “in vitro gastrin antagonism” value with gastrin receptor was “Very weak in vitro antagonists”.

The record behind these values is patent publication US4663321A, “Triazolobenzodiazepines and pharmaceutical use” (Merck & Co., Inc., priority 1985, dated 1987).
